Marks after values point to notes of the source that are not given here.
Experiments:
[1] = test system: T. cruzi; assay: β-D-Galactosidase transgenic T. cruzi assay (amastigote-infected L6 cells); format: cell-based, T. cruzi Tulahuen C4 strain; settings: Trypanosoma cruzi, 96 h, read-out: T. cruzi pEC50 (converted)
Procedure: The T. cruzi Tulahuen C4 strain, expressing the β-galactosidase gene (LacZ) and L6 rat skeletal muscle cells, used as host cells, were cultured in RPMI-1640 supplemented with 10% iFBS, 2 mM L-glutamine, 100 U/mL penicillin, and 100 μg/mL streptomycin at 37 °C and 5% CO2.
A Thermo Scientific Multidrop Combi dispenser (MTX Lab Systems, Vienna, VA) was used to dispense 90 μL of T. cruzi amastigote–infected L6 cell culture (4×10^3 infected L6 cells per well) into 96-well Corning assay plates (Corning Inc., Corning, NY) already containing 10 μL of the compounds to be screened and controls. The plates were incubated at 37 °C for 96 h. Then, 30 μL of 100 μM CPRG and 0.1% NP40 diluted in PBS were added to each well, and the plates were incubated for 4 h at 37 °C in the dark. Absorbance at 585 nm was measured in a Vmax kinetic microplate reader ([…]). Compound activities were normalized using the in-plate negative (benznidazole at 10 μg/mL) and positive (0.2% DMSO) growth controls.

[2] = Human plasma protein binding (equilibrium dialysis); format: in vitro ADME; settings: pH 7.4, read-out: PPB (converted)
Procedure: PPB is determined using equilibrium dialysis (RED device) to separate free from bound compound. The amount of compound in plasma (10 µM initial concentration) and in dialysis buffer (pH 7.4 phosphate buffer) is measured by LC-MS/MS after equilibration at 37 °C in a dialysis chamber. The fraction unbound (fu) is reported.

[3] = test system: L. donovani; assay: EC50 in L. donovani (infected THP-1 macrophages, luciferase); format: cell-based, Leishmania donovani MHOM/ET/67/HU3; settings: Leishmania donovani, 72 h, read-out: L. donovani pEC50 (converted)
Procedure: Leishmania donovani MHOM/ET/67/HU3 cells with the luciferase gene integrated into the parasite genome[1] were grown at 28 °C in RPMI 1640-modified medium (Invitrogen) supplemented with 20% FBS with […] of hygromycin B.
The Human myelomonocytic cell line THP-1 was grown at 37 °C and 5% CO2 in RPMI-1640 supplemented with 10% iFBS, 2 mM […], 100 U/mL penicillin and […] streptomycin. 3 x 10^4 THP-1 cells per well in 96-well plates were differentiated to macrophages with 20 ng/mL of PMA treatment for 48 h followed by 24 h of culture in fresh medium.
Macrophage-differentiated THP-1 cells were infected at a macrophage/parasite ratio of 1/10 with stationary L. donovani promastigotes for 24 h at 35 °C and 5% CO2, and extracellular parasites were removed by washing with PBS. Infected cell cultures were then incubated with different compounds concentrations at 37 °C for 72 h. Luminescence was measured using the Promega kit luciferase assay system (Promega, Madison, WI). Assays were performed in duplicate at least twice, to achieve a minimal n=3 per dose response.

[4] = Aqueous pH 7.4 solubility; format: physicochemical; settings: aqueous buffer, thermodynamic from solid; pH 7.4 phosphate buffer, 25 °C, 20-24 h; read-out: Aq. Solubility
Procedure: Compounds are dried down from 10 mM DMSO solutions using centrifugal evaporation technique. Phosphate buffer (0.1 M pH 7.4) added and StirStix inserted in the glass vials, shaking is then performed at a constant temperature of 25 °C for 20-24 h. This step is followed by double centrifugation with a tip wash in between, to ensure that no residues of the dried compound are interfering. The solutions are diluted before analysis and quantification using LC/MS/MS is performed.

[5] = test system: S. mansoni adults and somules; assay: S. mansoni phenotypic assay, adults and somules (severity score); format: cell-based, Schistosoma mansoni (NMRI isolate); settings: score 0-4; for Adult severity score (10 μM): adults; for Somule severity score (10 μM): somules
Procedure: Maintenance of the Schistosoma mansoni life cycle, preparation of somules (post-infective larvae) and adult worms (≥42-days-old), and co-incubation of these stages with test compounds were as described. An NMRI isolate of S. mansoni was used for all whole-organism screens.
Somules (40 units/well/96w round-bottomed plate) or adults (five paris/well/24w plate) were cultured in the presence of compounds at 10 µM and phenotypic changes observed as a function of time using an Zeiss Axiovert A1 inverted microscope (Table S4). A constrained nomenclature was used to describe the effects of compounds on parasites (changes in shape, motility and density). To generate a partially quantitative output for comparing drug effects, each descriptor was awarded a score of 1 and these were summed to a maximum score of 4 [7-10]: evidence of degeneracy or death was awarded the maximum score of 4. For adults specifically, damage to the tegument (outer surface) was also awarded a score of 4 based on the indication that damage to the patrasite’s surface is lethal in vivo [11]. Assays were performed twice and representative data are shown.

[6] = Shake-flask octanol-water Log D7.4; format: physicochemical; settings: pH 7.4, octanol-water shake-flask
Procedure: Shake-flask octanol-water distribution coefficient at pH 7.4 (Log D7.4). The aqueous solution used is 10 mM sodium phosphate pH 7.4 buffer. The method has been validated for Log D7.4 ranging from -2 to 5.0.

[7] = test system: T. b. brucei; assay: T. b. brucei growth inhibition EC50 assay (resazurin, 72 h); format: cell-based, Trypanosoma brucei brucei Lister 427; settings: 72 h, resazurin, error within ±0.20 (Table 2) or ±0.08 (Table 3) log units; for EC50: Trypanosoma brucei, read-out: T.b.b. pEC50 (converted)
Procedure: Mid-log phase growth T. b. brucei was diluted to a working cell density of 2,750 cells/mL and 90 μL/well dispensed into 96-well flat-bottom transparent assay plates (Nunc). Ten μL/well from intermediate plates were added. The final top concentration of compounds was 40 μM in 0.4% DMSO per well.
Assay plates were incubated for 72 h at 37°C and 5% CO2. Four hours prior to the end of the incubation, 20 μL of a 440 μM resazurin solution in prewarmed HMI-9 was added to each well and incubated for another 4 h. Fluorescence was then measured in an Infinite F200 plate reader (Tecan) at 550 nm (excitation filter) and 590 nm (emission filter). A 4-parameter equation was employed to fit the dose-response curves and determine of EC50 using the SigmaPlot 13.0 software. Assays were performed in duplicate at least twice, to achieve a minimal n = 3 per dose response.
Bloodstream Trypanosoma brucei brucei Lister 427 was cultured in Hirumi’s modified Iscove’s medium (HMI-9), supplemented with 10% heat-inactivated FBS, at 37 °C and 5% CO2 in T-25 vented flask (Corning®).
For dose-response experiments, compound plates were prepared for each analogue by serial 3-fold dilutions in 100% DMSO. Five concentration points (mammalian cytotoxicity) or ten concentration points (parasite growth inhibition), were made in 96-well transparent Nunclon plates. Pentamidine is routinely included in compound plates as internal quality control, and plates are stored sealed at -20 °C for no more than four weeks.

[8] = test system: MRC5-SV2 cell line; assay: Cytotoxicity assay in MRC5 (resazurin, 48 h); format: cell-based, human; settings: MRC5 toxicity
Procedure: For dose-response experiments, compound plates were prepared for each analogue by serial 3-fold dilutions in 100% DMSO. Five concentration points (mammalian cytotoxicity) or ten concentration points (parasite growth inhibition), were made in 96-well transparent Nunclon plates. Pentamidine is routinely included in compound plates as internal quality control, and plates are stored sealed at -20 °C for no more than four weeks. Intermediate plates were made as described, adding 95 μL of DMEM complete media to 5 μL of compound per well setting a 5% DMSO amount. Log-phase MRC5 cells were removed from a T-75 TC flask using TrypLE® Express (Thermo®) and dispersed by gentle pipetting. Cell density was adjusted to working concentration in prewarmed DMEM medium: 25,000 cells in 90 μL of culture were plated in 96-well transparent Nunclon plates and let to settle for 24 h at 37 °C and 5% CO2. After settling incubation, 10 μL of fresh made intermediate plate were added per well: final maximal concentration for compounds was 50 μM in 0.5% DMSO per well. […] Fluorescence was read in an Infinite F200 plate reader (Tecan®) at 550 nm (excitation filter) and 590 nm (emission filter). A 4-parameter equation was used to fit the dose-response curves and determination of EC50 by SigmaPlot ® 13.0 software. Assays were performed in duplicate at least twice for positive compounds, to achieve a minimal n=3 per dose response.

[9] = Human liver microsomal CLint; format: in vitro ADME; settings: human, liver microsomes, read-out: HLM Clint
Procedure: In vitro intrinsic clearance determined from human liver microsomes using a standard approach. Following incubation and preparation, the samples are analyzed using LC/MS/MS.

SMILES | EC50 [7] [nM] | MRC5 pTC50 [8] | T.b.b. pEC50 [7] | also measured
COc1ccc(N/N=C2\C(=O)Nc3ccccc32)cc1 [NEU-2114, (Z)-3-(2-(4-Methoxyphenyl)hydrazono)indolin-2-one] | 10000 | <4.3 | – | EC50 [1]: > 10 µM; fraction unbound at 10 µM [2]: < 0.03; EC50 [3]: > 10 µM; solubility [4]: < 7 µM; Adult severity score (10 μM) ([5]; 3h): 0; Adult severity score (10 μM) ([5]; 6h): 0; Adult severity score (10 μM) ([5]; 24h): 0; Adult severity score (10 μM) ([5]; 48h): 0; Somule severity score (10 μM) ([5]; 24h): 2; Somule severity score (10 μM) ([5]; 48h): 0; logD [6]: > 3.3
NS(=O)(=O)c1ccc(N/N=C2\C(=O)Nc3ccccc32)cc1 [NEU-2115, (Z)-4-(2-(2-Oxoindolin-3-ylidene)hydrazinyl)benzenesulfonamide] | 1260 | <4.3 | – | EC50 [1]: > 10 µM; fraction unbound at 10 µM [2]: 0.04; EC50 [3]: > 10 µM; solubility [4]: < 8 µM; microsomal CLint [9]: 20.4 µL/min/mg; logD [6]: 2.3
O=C1Nc2ccccc2/C1=N/Nc1cc(Cl)cc(Cl)c1 [NEU-2117, (Z)-3-(2-(3,5-Dichlorophenyl)hydrazono)indolin-2-one] | > 39800 | <4.3 | – | EC50 [1]: > 10 µM; fraction unbound at 10 µM [2]: < 0.04; EC50 [3]: > 10 µM; solubility [4]: < 3 µM; Adult severity score (10 μM) ([5]; 3h): 1; Adult severity score (10 μM) ([5]; 6h): 0; Adult severity score (10 μM) ([5]; 24h): 0; Adult severity score (10 μM) ([5]; 48h): 3; Somule severity score (10 μM) ([5]; 24h): 0; Somule severity score (10 μM) ([5]; 48h): 0; logD [6]: > 3.7
NS(=O)(=O)c1ccc(N/N=C2\C(=O)Nc3ccc(Cl)cc32)cc1 [NEU-2319] | – | <5.0^b | 6.0 | –
CC(C)=Cc1cccc2c1/C(=N/Nc1ccc(S(=O)(=O)N(C)C)cc1)C(=O)N2 [NEU-4405, (Z)-N,N-Dimethyl-4-(2-(4-(2-methylprop-1-en-1-yl)-2-oxoindolin-3-ylidene)hydrazinyl)benzenesulfonamide] | 5010 | <4.3 | – | EC50 [1]: > 20 µM; EC50 [3]: > 5.01 µM
CC(C)c1cc2c(c(Cl)c1O)/C(=N/Nc1ccc(S(N)(=O)=O)cc1)C(=O)N2 [NEU-5455] | – | <5.0^b | 6.4 | –
Cc1ccc2c3c(ccc2n1)NC(=O)/C3=N\Nc1ccc(S(N)(=O)=O)cc1 [NEU-5456] | 39.8 | <5.0^b | – | –
NS(=O)(=O)c1ccc(NN=C2C(=O)Nc3cc4c(cc32)NCC4)cc1 [NEU-5459] | 794 | <5.0^b | – | –
NC(=O)c1cccc2c1/C(=N/Nc1ccc(S(N)(=O)=O)cc1)C(=O)N2 [NEU-5460] | – | <5.0^b | 6.2 | –
Cc1c(Cl)ccc2c1/C(=N/Nc1ccc(S(N)(=O)=O)cc1)C(=O)N2 [NEU-5464] | – | <5.0^b | 7.3 | –
Cc1cc2c(c(C)c1O)/C(=N/Nc1ccc(S(N)(=O)=O)cc1)C(=O)N2 [NEU-5469] | – | <5.0^b | 8.2 | –
CCc1ccc2c(c1)NC(=O)/C2=N\Nc1ccc(S(N)(=O)=O)cc1 [NEU-5470] | – | <5.0^b | 6.1 | –
Cc1ccc2c(c1C)/C(=N/Nc1ccc(S(N)(=O)=O)cc1)C(=O)N2 [NEU-5479] | – | <5.0^b | 6.9 | –
Cc1cc2c(c(Cl)c1O)/C(=N/Nc1ccc(S(N)(=O)=O)cc1)C(=O)N2 [NEU-5485] | – | <5.0^b | 7.1 | –
CC(C)Cc1cccc2c1/C(=N/Nc1ccc(S(N)(=O)=O)cc1)C(=O)N2 [NEU-5487] | – | <5.0^b | 7.4 | –
CCc1cccc2c1/C(=N/Nc1ccc(S(N)(=O)=O)cc1)C(=O)N2 [NEU-5489] | – | <5.0^b | 7.5 | –
CC(C)c1cccc2c1/C(=N/Nc1ccc(S(N)(=O)=O)cc1)C(=O)N2 [NEU-5491] | – | <5.0^b | 7.6 | –
NS(=O)(=O)c1ccc(N/N=C2\C(=O)Nc3cccc(CC4CCC4)c32)cc1 [NEU-5492] | – | <5.0^b | 6.9 | –
NS(=O)(=O)c1ccc(N/N=C2\C(=O)Nc3cccc(CCc4ccc(O)cc4)c32)cc1 [NEU-5493] | – | – | 6.0 | –

Reference: publication PMC6383948, “Evaluation of a class of isatinoids identified from a high-throughput screen of human kinase inhibitors as anti-Sleeping Sickness agents” (PLoS Neglected Tropical Diseases, 2019)
